# Experiments:
# Format in all cases: ADME, organism-based, Cavia porcellus
# Conditions in all cases: in vivo
# [1] = Volume of distribution in Hartley guinea pig at 1 mg/kg, iv administered as single dose
# [2] = Oral bioavailability in Hartley guinea pig at 10 mg/kg
# [3] = Cmax in Hartley guinea pig at 10 mg/kg, po administered as single dose; parameters: dose 10 mg/kg, route oral
# [4] = Tmax in Hartley guinea pig at 1 mg/kg, iv administered as single dose
# [5] = AUC (0 to infinity) in Hartley guinea pig at 10 mg/kg, po administered as single dose; parameters: dose 10 mg/kg, route oral, time infinity
# [6] = Cmax in Hartley guinea pig at 1 mg/kg, iv administered as single dose; parameters: dose 1 mg/kg, route intravenous
# [7] = AUC (0 to infinity) in Hartley guinea pig at 1 mg/kg, iv administered as single dose; parameters: dose 1 mg/kg, route intravenous, time infinity
# [8] = Tmax in Hartley guinea pig at 10 mg/kg, po administered as single dose
Vd [1],bioavailability [2],Cmax [3],Tmax [4],AUC(0-inf) [5],Cmax [6],AUC(0-inf) [7],Tmax [8],Compound
4.4 L/kg,61.4%,710 ng/mL,6 min,3710 ng·h/mL,446 ng/mL,560 ng·h/mL,70.2 min,CCS(=O)(=O)N1CCN(c2ccc(OC[C@@H]3CO[C@@](Cn4ccnc4)(c4ccc(Cl)cc4Cl)O3)cc2)CC1
2.9 L/kg,98.5%,1560 ng/mL,4.8 min,7580 ng·h/mL,514 ng/mL,715 ng·h/mL,90 min,O=S(=O)(C1CC1)N1CCN(c2ccc(OC[C@@H]3CO[C@@](Cn4ccnc4)(c4ccc(Cl)cc4Cl)O3)cc2)CC1
3 L/kg,10.4%,358 ng/mL,11.4 min,571 ng·h/mL,534 ng/mL,547 ng·h/mL,40.2 min,CC(C)S(=O)(=O)N1CCN(c2ccc(OC[C@@H]3CO[C@@](Cn4ccnc4)(c4ccc(Cl)cc4Cl)O3)cc2)CC1
2.5 L/kg,39.5%,1970 ng/mL,4.8 min,4600 ng·h/mL,2090 ng/mL,1160 ng·h/mL,40.2 min,N#CCS(=O)(=O)N1CCN(c2ccc(OC[C@@H]3CO[C@@](Cn4ccnc4)(c4ccc(Cl)cc4Cl)O3)cc2)CC1

# From ChEMBL document CHEMBL3867461, “Design, synthesis, and evaluation of (2S,4R)-Ketoconazole sulfonamide analogs as potential treatments for Metabolic Syndrome” (Bioorg Med Chem Lett, 2016)
